The results in this text go back to ChEMBL document CHEMBL2016471, “5-benzylidenerhodanine and 5-benzylidene-2-4-thiazolidinedione based antibacterials” (2012).

The subject of test [1] is Bacillus subtilis. Description: Antibacterial activity against Bacillus subtilis ATCC 6633. The class given is functional.
For test [2], the system named is Staphylococcus aureus. In words: Antibacterial activity against Staphylococcus aureus ATCC 31890. In kind it is functional.
The test system of test [3] is Staphylococcus epidermidis. In words: Antibacterial activity against Staphylococcus epidermidis. In kind it is functional.
The test system of test [4] is Escherichia coli. Description: Antibacterial activity against Escherichia coli K-12. In kind it is functional, organism-based.
Test [5] concerns Escherichia coli. Description: Antibacterial activity against TolC-deficient Escherichia coli. In kind it is functional.
Test [6] has as its system Staphylococcus aureus. In words: Bacteriostatic activity against Staphylococcus aureus after 6 hrs. In kind it is functional, organism-based.

≈ marks a conversion by molar mass, not a printed value. Calls of active or inactive are those of the source. The rule behind the calls is not given here.

As to `O=C1NC(=S)S/C1=C\c1ccc2ccccc2c1`, the MIC in test [1] was over 64 µg/mL; in test [2] it was 0.5 µg/mL (≈ 1.84 µM); in test [3], 0.5 µg/mL (≈ 1.84 µM); in test [5], 8 µg/mL (≈ 29.5 µM). In addition, the outcome in test [4] was inactive.
With `CCCc1ccccc1NC(=O)[C@H](CO)NC(=O)c1ccc(/C=C2\SC(=O)NC2=O)cc1`, the MIC in test [1], in test [2] and in test [3] was over 64 µg/mL in each case. Moreover, the outcome in test [4] was inactive.
`CCCc1ccccc1NC(=O)[C@H](COC(C)(C)C)NC(=O)c1ccc(/C=C2\SC(=S)NC2=O)cc1`: the MIC in test [1] turned out to be 8 µg/mL (≈ 15.2 µM); in test [2], 16 µg/mL (≈ 30.4 µM); in test [3] it was 16 µg/mL (≈ 30.4 µM). Also, the outcome in test [4] was inactive.
`O=C1NC(=O)/C(=C/c2cccnc2)S1`: the MIC in test [1], in test [2] and in test [3] was over 64 µg/mL each time. In addition, in test [4], the result was inactive.
With `O=C1NC(=O)/C(=C/c2ccc(C(=O)O)cc2)S1`, the minimum inhibitory concentration (MIC) in test [1], in test [2] and in test [3] was over 64 µg/mL in each case. The result in test [4] was inactive.
In the case of `O=C1NC(=S)S/C1=C\c1ccc(C(=O)O)cc1`, the MIC in test [1], in test [2] and in test [3] was over 64 µg/mL throughout. In test [4], the outcome was inactive.
For `CCCc1ccccc1NC(=O)[C@H](Cc1ccccc1)NC(=O)c1ccc(/C=C2\SC(=O)NC2=O)cc1`, the minimum inhibitory concentration (MIC) was 8 µg/mL (≈ 15.6 µM) in test [1], over 64 µg/mL in test [2] and over 64 µg/mL in test [3]. In addition, the outcome in test [4] was inactive.
As for `O=C1NC(=S)S/C1=C\c1ccco1`, the figures for the MIC in test [1], in test [2] and in test [3] were over 64 µg/mL, 16 µg/mL (≈ 75.7 µM) and 16 µg/mL (≈ 75.7 µM), respectively. Besides, the result in test [4] was inactive.
Turning to `CCCc1ccccc1OC[C@H](O)COc1ccc(/C=C2\SC(=O)NC2=O)cc1`, the MIC is 8 µg/mL (≈ 19.3 µM) in test [1], over 64 µg/mL in test [2] and over 64 µg/mL in test [3]. In addition, the outcome in test [4] was inactive.
On to `O=C1NC(=O)/C(=C/c2ccccc2)S1`, for which the MIC in test [1], in test [2] and in test [3] was over 64 µg/mL each time. In addition, the result in test [4] was inactive.
For `CCCc1ccccc1NC(=O)[C@H](COCc1ccccc1)NC(=O)c1ccc(/C=C2\SC(=S)NC2=O)cc1`, the minimum inhibitory concentration (MIC) was 8 µg/mL (≈ 14.3 µM) in test [1], over 64 µg/mL in test [2] and over 64 µg/mL in test [3]. The outcome in test [4] was inactive.
As for `CCCc1ccccc1NC(=O)[C@H](CO)NC(=O)c1ccc(/C=C2\SC(=S)NC2=O)cc1`, the MIC in test [1], in test [2] and in test [3] was over 64 µg/mL throughout. For the same molecule, the outcome in test [4] was inactive.
For the molecule `CCCc1ccccc1NC(=O)[C@H](CC(C)C)NC(=O)c1ccc(/C=C2\SC(=O)NC2=O)cc1`, the minimal inhibitory concentration (MIC) in test [1] was 8 µg/mL (≈ 16.7 µM); in test [2], over 64 µg/mL; in test [3] it was over 64 µg/mL. In addition, in test [4], the result was inactive.
With `CCCc1ccccc1OC[C@H](O)COc1ccc(/C=C2\SC(=S)NC2=O)cc1`, the minimum inhibitory concentration (MIC) in test [1] was 16 µg/mL (≈ 37.2 µM); in test [2], 16 µg/mL (≈ 37.2 µM); in test [3], 32 µg/mL (≈ 74.5 µM). In addition, the outcome in test [6] was Active. Also, the result in test [4] was inactive.
As for `CCCc1ccccc1NC(=O)[C@H](Cc1ccccc1)NC(=O)c1ccc(/C=C2\SC(=S)NC2=O)cc1`, the minimal inhibitory concentration (MIC) in test [1], in test [2] and in test [3] was over 64 µg/mL throughout. In test [4], the outcome was inactive.
`CCCc1ccccc1NC(=O)[C@H](Cc1ccc(O)cc1)NC(=O)c1ccc(/C=C2\SC(=S)NC2=O)cc1`: the minimal inhibitory concentration (MIC) is 8 µg/mL (≈ 14.7 µM) in test [1], over 64 µg/mL in test [2] and over 64 µg/mL in test [3]. Moreover, in test [4], the outcome was inactive.
On to `CCCc1ccccc1NC(=O)[C@H](C)NC(=O)c1ccc(/C=C2\SC(=S)NC2=O)cc1`, for which the minimal inhibitory concentration (MIC) is 32 µg/mL (≈ 70.5 µM) in test [1], over 64 µg/mL in test [2] and over 64 µg/mL in test [3]. Also, the result in test [4] was inactive.
For `CCCc1ccccc1NC(=O)[C@H](CC(C)C)NC(=O)c1ccc(/C=C2\SC(=S)NC2=O)cc1`, the figures for the MIC in test [1], in test [2] and in test [3] were 32 µg/mL (≈ 64.6 µM), over 64 µg/mL and over 64 µg/mL, respectively. In test [4], the outcome was inactive.
Turning to `CCCc1ccccc1NC(=O)[C@H](C)NC(=O)c1ccc(/C=C2\SC(=O)NC2=O)cc1`, the minimum inhibitory concentration (MIC) in test [1], in test [2] and in test [3] was over 64 µg/mL each time. In test [4], the result was inactive.

For orientation: MIC means the lowest concentration found to suppress growth. High values mean weaker potency, low ones greater potency.
